Assay results as given in PubChem BioAssay (NCI).
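Where inhibition never reached the appropriate level, the endpoint shown equals the highest concentration tested. Otherwise, values were interpolated linearly from a five-concentration, 48-hour dose response in 96-well plates. At the GI50, growth is halved. TGI marks complete inhibition of growth.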

Assays:
Assay in all cases: DTP human tumour cell line panel, 48 h
EKVX NSCLC = tested on: EKVX NSCLC
CCRF-CEM leukemia = tested on: CCRF-CEM leukemia
NCI-H522 lung = tested on: NCI-H522 lung
HCT-15 colon = tested on: HCT-15 colon
OVCAR-4 ovarian = tested on: OVCAR-4 ovarian
OVCAR-3 ovarian = tested on: OVCAR-3 ovarian
HCC-2998 colon = tested on: HCC-2998 colon
SK-OV-3 ovarian = tested on: SK-OV-3 ovarian
HOP-92 NSCLC = tested on: HOP-92 NSCLC
SNB-75 CNS = tested on: SNB-75 CNS

Compound | GI50 (EKVX NSCLC) | TGI (EKVX NSCLC) | GI50 (CCRF-CEM leukemia) | TGI (CCRF-CEM leukemia) | GI50 (NCI-H522 lung) | TGI (NCI-H522 lung) | GI50 (HCT-15 colon) | TGI (HCT-15 colon) | GI50 (OVCAR-4 ovarian) | TGI (OVCAR-4 ovarian) | GI50 (OVCAR-3 ovarian) | TGI (OVCAR-3 ovarian) | GI50 (HCC-2998 colon) | TGI (HCC-2998 colon) | GI50 (SK-OV-3 ovarian) | TGI (SK-OV-3 ovarian) | GI50 (HOP-92 NSCLC) | TGI (HOP-92 NSCLC) | GI50 (SNB-75 CNS) | TGI (SNB-75 CNS)
COc1ccc(NC(=O)c2cccc(C3CCc4c(cc(OC)c(OC)c4OC)O3)c2)cc1 (stereo not given) | 3.28 µM | > 100 µM | 1.6 µM | > 100 µM | 2.29 µM | 7.37 µM | 1.96 µM | > 100 µM | 3.14 µM | > 100 µM | 3.54 µM | > 100 µM | 6.01 µM | > 100 µM | 3.54 µM | > 100 µM | 0.29 µM | 3.49 µM | – | –
O=c1[nH]c2ccccc2n1C1CCN(CCOc2ccccc2)CC1 | 7.05 µM | 58.4 µM | – | – | 56.9 µM | > 100 µM | 20.6 µM | > 100 µM | 5.86 µM | > 100 µM | 14 µM | > 100 µM | 26.9 µM | > 100 µM | 42.9 µM | > 100 µM | 22.9 µM | > 100 µM | 23.7 µM | > 100 µM
CCOC(=O)c1ccc(NC(=O)c2cccc(NC3=C(Cl)C(=O)N(Cc4ccccc4)C3=O)c2)cc1 | > 100 µM | > 100 µM | 15.7 µM | 65.9 µM | 62.9 µM | > 100 µM | > 100 µM | > 100 µM | > 100 µM | > 100 µM | > 100 µM | > 100 µM | – | – | > 100 µM | > 100 µM | 78.8 µM | > 100 µM | > 100 µM | > 100 µM
CC[P+]1(c2ccccc2)CCCCC1 | – | > 100 µM | – | > 100 µM | – | – | – | > 100 µM | – | > 100 µM | – | > 100 µM | – | > 100 µM | – | > 100 µM | – | > 100 µM | – | > 100 µM
FC(F)(F)c1nc(Br)[nH]c1C(F)(F)F | – | > 100 µM | – | > 100 µM | – | – | – | > 100 µM | – | > 100 µM | – | > 100 µM | – | > 100 µM | – | > 100 µM | – | 71.7 µM | – | > 100 µM
CNC(=O)NCCN1N=C(C)/C(=C\c2ccccc2)CC1=O | – | – | – | > 100 µM | – | > 100 µM | – | – | – | > 100 µM | – | > 100 µM | – | > 100 µM | – | > 100 µM | – | > 100 µM | – | > 100 µM
CCc1ccccc1NC(=O)C(=O)C(C#N)c1c(Cl)cccc1Cl (stereo not given) | – | > 100 µM | – | > 100 µM | – | > 100 µM | – | > 100 µM | – | – | – | > 100 µM | – | – | – | > 100 µM | – | > 100 µM | – | > 100 µM
Cc1ccc(C2C3Cc4ccccc4C3=NN2c2ccc(S(=O)(=O)NC(=O)Nc3ccccc3)cc2)cc1 (stereo not given) | 13.7 µM | 33 µM | 17.8 µM | 46.6 µM | 10.6 µM | 28.7 µM | 14.8 µM | 32.2 µM | 17.9 µM | 50 µM | 14.7 µM | 36.5 µM | – | – | 16.1 µM | 31.9 µM | 14.3 µM | 28.2 µM | 17.9 µM | 47.8 µM
COC(=O)[C@H](CCCCNC(=O)OCc1ccccc1)NC(=O)[C@@H](NC(=O)Nc1cc(C(F)(F)F)cc(C(F)(F)F)c1)C(C)C | – | – | > 10 µM | > 10 µM | > 10 µM | > 10 µM | > 10 µM | > 10 µM | > 10 µM | > 10 µM | > 10 µM | > 10 µM | > 10 µM | > 10 µM | > 10 µM | > 10 µM | > 10 µM | > 10 µM | > 10 µM | > 10 µM
CCOC(=O)c1cc2c(n1Cc1ccccc1OC)-c1oncc1CCC2 | – | – | 2.87 µM | > 100 µM | 0.351 µM | 2.88 µM | 2.24 µM | > 100 µM | 9.35 µM | > 100 µM | 0.874 µM | 6.49 µM | > 100 µM | > 100 µM | 2.7 µM | 19.7 µM | 0.309 µM | 7.43 µM | – | –
Nc1nc(N)c(-c2ccc(Cl)c(Cl)c2)c(CP(Cl)(Cl)(Cl)Br)n1 | – | – | 8.13 µM | > 100 µM | 21.2 µM | > 100 µM | 4.26 µM | > 100 µM | 53.8 µM | > 100 µM | 21.1 µM | > 100 µM | 19.9 µM | > 100 µM | 86.7 µM | > 100 µM | 12.6 µM | 54.3 µM | 39.7 µM | > 100 µM
O=C(CCl)Nc1ccc(Cc2ccc(NC(=O)CCl)cc2)cc1 | 2.23 µM | 5.78 µM | 0.47 µM | 3.01 µM | 1.47 µM | 3.5 µM | – | – | 1.42 µM | 3.44 µM | 1.17 µM | 2.48 µM | 1.8 µM | 3.47 µM | 18 µM | > 100 µM | 2.09 µM | 5.12 µM | – | > 29.3 µM
CC[Si](CC)(CC)OC1[C@@H](O[Si](CC)(CC)CC)[C@@H](CNC(=O)NC)O[C@H]1n1cnc2c(NC(=O)Nc3ccccc3)ncnc21 (stereo not given in full) | – | – | 3.02 µM | 9.18 µM | 3.83 µM | 78.5 µM | 3.78 µM | > 100 µM | 3.41 µM | > 100 µM | 2.63 µM | 7.7 µM | 3.22 µM | 16.2 µM | 14.7 µM | > 100 µM | 1.58 µM | 5.26 µM | 3.95 µM | > 100 µM
Cc1ccc2c(c1)C(O)(c1ccccc1)CCS2 (stereo not given) | – | > 100 µM | – | – | – | 44.6 µM | – | 42.4 µM | – | > 100 µM | – | 46.9 µM | – | – | – | > 100 µM | – | 77.9 µM | – | > 100 µM
Cc1cn(C2CC(O)C(COC(N)=O)O2)c(=O)[nH]c1=O (stereo not given) | – | > 100 µM | – | > 100 µM | – | > 100 µM | – | > 100 µM | – | > 100 µM | – | > 100 µM | – | – | – | > 100 µM | – | > 100 µM | – | > 100 µM
CC(C)(C)OC1=C(OC(C)(C)C)C(O)(c2ccc(Cl)cc2)C1=O (stereo not given) | – | > 100 µM | – | > 100 µM | – | – | – | > 100 µM | – | > 100 µM | – | > 100 µM | – | > 100 µM | – | > 100 µM | – | – | – | > 100 µM
CC(=N/NC(N)=S)/C(C)=N/NC(N)=S | – | > 100 µM | – | > 100 µM | – | > 100 µM | – | > 100 µM | – | – | – | > 100 µM | – | > 100 µM | – | – | – | – | – | > 100 µM
